Patent US20250288587A1, “Methods of Treating Fibrosis” (Athira Pharma, Inc., priority 2022, published 2025)

Columns and labels:
[1] = tested on: pulmonary LPS-stimulated rats; assay: Cytokine expression in BALF supernatant (multiplex immunoassay), LPS-induced acute pulmonary inflammation; format: in vivo
[2] = tested on: CFA-stimulated rats; assay: CFA inflammatory pain model, mechanical allodynia (von Frey test); format: in vivo; parameters: key to Mechanical Allodynia, change in sensitivity compared to CFA alone / Mechanical Allodynia, significant reduction in pain behavior vs CFA alone: NS = no statistically significant change in sensitivity compared to CFA alone; + = statistically significant change in sensitivity compared to CFA alone, p < 0.05
In short: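 Rats received […] subcutaneously into the right hind plantar paw on day 0, with daily oral gavage dosing from day −1 to day 8 (1, 0.1, 0.025 mg/kg) or on days −2, 1, 3 and 7. Von Frey paw withdrawal threshold (4–26 g filaments) was measured 1 h post-dose on days 1, 3 and 7.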

[3] = tested on: CFA-stimulated rats; assay: CFA inflammatory pain model, thermal hyperalgesia (Hargreaves method); format: in vivo; parameters: key to Thermal Hyperalgesia, change in sensitivity compared to CFA alone / Thermal Hyperalgesia, significant reduction in pain behavior vs CFA alone: NS = no statistically significant change in sensitivity compared to CFA alone; + = statistically significant change in sensitivity compared to CFA alone, p < 0.05
[4] = tested on: MRC-5 cells; assay: TGFβ-stimulated αSMA expression in MRC-5 cells (HTRF); format: cell-based; conditions: for αSMA expression: combined with 0.01 ng/ml HGF; for Significant reduction in αSMA via HTRF compared to TGFβ alone: TGFβ 1 ng/ml, HGF 0.01 ng/ml, 48 h
In short: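 Confluent MRC-5 fibroblasts serum-starved 2 h, then stimulated with TGFβ (final 1 ng/ml). After 2 h, HGF alone or with compound added; αSMA in lysates measured by HTRF after 48 h, relative to TGFβ-stimulated cultures. Dunnett's post-test after 1-way ANOVA.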

[5] = 0.075 mg/kg IV, 24 h and 0.5 h before LPS
[6] = 0.75 mg/kg IV, 24 h and 0.5 h before LPS
[7] = 7.5 mg/kg IV, 24 h and 0.5 h before LPS
[8] = 10 mg/kg PO, Day 1, 1 h post-dose
[9] = 10 mg/kg PO, Day 3, 1 h post-dose
[10] = 10 mg/kg PO, Day 7, 1 h post-dose
[11] = 20 mg/kg PO, Day 1, 1 h post-dose
[12] = 20 mg/kg PO, Day 3, 1 h post-dose
[13] = 20 mg/kg PO, Day 7, 1 h post-dose
[14] = PO, post-dose testing, any tested dose

Q: Which “CCL3, significant change in cytokine expression in BALF supernatant” value [1, 5] does the source give for CCC(C)CN1CC2N(Cc3ccc(C(F)(F)F)cc3)CCC(=O)N2[C@@H](C)C1=O (stereo partly shown) [Compound 5a] here?
A: + (+ = Significant change in cytokine quantification, p < 0.05 by Student's T-test)

Q: And the “CX3CL1, significant change in cytokine expression in BALF supernatant” value [1, 5]?
A: + (+ = Significant change in cytokine quantification, p < 0.05 by Student's T-test)

Q: And the “EGF, significant change in cytokine expression in BALF supernatant” value [1, 5]?
A: + (+ = Significant change in cytokine quantification, p < 0.05 by Student's T-test)

Q: And the “IFN-γ, significant change in cytokine expression in BALF supernatant” value [1, 5]?
A: + (+ = Significant change in cytokine quantification, p < 0.05 by Student's T-test)

Q: What about the “IL-1α, significant change in cytokine expression in BALF supernatant” value (“IL-1α, significant change” for short) [1, 5] of the same compound?
A: + (+ = Significant change in cytokine quantification, p < 0.05 by Student's T-test)

Q: And the “IL-1β, significant change in cytokine expression in BALF supernatant” value [1, 5]?
A: + (+ = Significant change in cytokine quantification, p < 0.05 by Student's T-test)

Q: And the “IL-10, significant change in cytokine expression in BALF supernatant” value (“IL-10, significant change” below) [1, 5]?
A: + (+ = Significant change in cytokine quantification, p < 0.05 by Student's T-test)

Q: What about the “IL-12p70, significant change in cytokine expression in BALF supernatant” value [1, 5] of the same compound?
A: + (+ = Significant change in cytokine quantification, p < 0.05 by Student's T-test)

Q: What about the “IL-17A, significant change in cytokine expression in BALF supernatant” value [1, 5] of the same compound?
A: + (+ = Significant change in cytokine quantification, p < 0.05 by Student's T-test)

Q: What about the “IFN-γ, significant change in cytokine expression in BALF supernatant” value [1, 6] of the same compound?
A: + (+ = Significant change in cytokine quantification, p < 0.05 by Student's T-test)

Q: And the “IL-1α, significant change” value [1, 6]?
A: + (+ = Significant change in cytokine quantification, p < 0.05 by Student's T-test)

Q: What about the “IL-1β, significant change in cytokine expression in BALF supernatant” value [1, 6] of the same compound?
A: + (+ = Significant change in cytokine quantification, p < 0.05 by Student's T-test)

Q: What about the “IL-10, significant change” value [1, 6] of the same compound?
A: + (+ = Significant change in cytokine quantification, p < 0.05 by Student's T-test)

Q: What about the “IL-17A, significant change in cytokine expression in BALF supernatant” value [1, 6] of the same compound?
A: + (+ = Significant change in cytokine quantification, p < 0.05 by Student's T-test)

Q: What about the “IL-1α, significant change” value [1, 7] of the same compound?
A: + (+ = Significant change in cytokine quantification, p < 0.05 by Student's T-test)

Q: What about the “IL-10, significant change” value [1, 7] of the same compound?
A: + (+ = Significant change in cytokine quantification, p < 0.05 by Student's T-test)

Q: What about the “cytokines with significant changes in expression in BALF supernatant versus LPS-only animals” value ([1]; p<0.05, Student's T-test, any tested dose) of the same compound?
A: CCL3, CXCL1, IFN-γ, IL-1α, IL-1β, IL-10, IL-12p70, and IL-17A

Q: What about the “Mechanical Allodynia, significant reduction in pain behavior vs CFA alone” value [2, 8] of the same compound?
A: + (+ = statistically significant change in sensitivity compared to CFA alone, p < 0.05)

Q: What about the “Mechanical Allodynia, significant reduction in pain behavior vs CFA alone” value [2, 9] of the same compound?
A: NS

Q: And the “Mechanical Allodynia, significant reduction in pain behavior vs CFA alone” value [2, 10]?
A: NS

Q: And the “Mechanical Allodynia, significant reduction in pain behavior vs CFA alone” value [2, 11]?
A: + (+ = statistically significant change in sensitivity compared to CFA alone, p < 0.05)

Q: What about the “Mechanical Allodynia, significant reduction in pain behavior vs CFA alone” value [2, 12] of the same compound?
A: NS

Q: And the “Mechanical Allodynia, significant reduction in pain behavior vs CFA alone” value [2, 13]?
A: NS

Q: What about the “study days on which sensitivity to mechanical stimulation was reduced” value [2, 14] of the same compound?
A: study day 1

Q: What about the “PWT (paw withdrawal threshold) vs CFA+vehicle” value ([2]; day 1, data not shown) of the same compound?
A: statistically significant increase

Q: What about the “Thermal Hyperalgesia, significant reduction in pain behavior vs CFA alone” value [3, 8] of the same compound?
A: + (+ = statistically significant change in sensitivity compared to CFA alone, p < 0.05)

Q: What about the “Thermal Hyperalgesia, significant reduction in pain behavior vs CFA alone” value [3, 9] of the same compound?
A: NS

Q: What about the “Thermal Hyperalgesia, significant reduction in pain behavior vs CFA alone” value [3, 10] of the same compound?
A: + (+ = statistically significant change in sensitivity compared to CFA alone, p < 0.05)

Q: And the “Thermal Hyperalgesia, significant reduction in pain behavior vs CFA alone” value [3, 11]?
A: NS

Q: What about the “Thermal Hyperalgesia, significant reduction in pain behavior vs CFA alone” value [3, 12] of the same compound?
A: NS

Q: And the “Thermal Hyperalgesia, significant reduction in pain behavior vs CFA alone” value [3, 13]?
A: + (+ = statistically significant change in sensitivity compared to CFA alone, p < 0.05)

Q: What about the “study days on which thermal sensitivity was reduced” value [3, 14] of the same compound?
A: study days 1 and 7

Q: What about the “PWL (paw withdrawal latency) vs CFA+vehicle” value ([3]; day 7 at each dose, data not shown) of the same compound?
A: statistically significant increase

Q: What about the αSMA expression ([4]; 1 nM) of the same compound?
A: significantly reduced αSMA

Q: And the αSMA expression ([4]; 1 uM)?
A: significantly reduced αSMA

Q: And the “Significant reduction in αSMA via HTRF compared to TGFβ alone” value ([4]; test compound 1 nM)?
A: + (+ = p < 0.05)

Q: What about the “Significant reduction in αSMA via HTRF compared to TGFβ alone” value ([4]; test compound 1 μM) of the same compound?
A: ++++ (++++ = p < 0.001)
